Results on 27 compounds are retold here after US10047104B2, “Bicyclic heterocyclyl derivatives as IRAK4 inhibitors” (Aurigene Discovery Technologies Limited, priority 2014, dated 2018).

pIC50: −log10 of the molar value. Structures can show the parent of a compound that is named as a salt.

The target of this test is T1, recombinant IRAK-4 kinase (Homo sapiens, UniProt Q9NWZ3).
T1 construct: purchased Millipore, USA
T1 sequence (Q9NWZ3 1-460): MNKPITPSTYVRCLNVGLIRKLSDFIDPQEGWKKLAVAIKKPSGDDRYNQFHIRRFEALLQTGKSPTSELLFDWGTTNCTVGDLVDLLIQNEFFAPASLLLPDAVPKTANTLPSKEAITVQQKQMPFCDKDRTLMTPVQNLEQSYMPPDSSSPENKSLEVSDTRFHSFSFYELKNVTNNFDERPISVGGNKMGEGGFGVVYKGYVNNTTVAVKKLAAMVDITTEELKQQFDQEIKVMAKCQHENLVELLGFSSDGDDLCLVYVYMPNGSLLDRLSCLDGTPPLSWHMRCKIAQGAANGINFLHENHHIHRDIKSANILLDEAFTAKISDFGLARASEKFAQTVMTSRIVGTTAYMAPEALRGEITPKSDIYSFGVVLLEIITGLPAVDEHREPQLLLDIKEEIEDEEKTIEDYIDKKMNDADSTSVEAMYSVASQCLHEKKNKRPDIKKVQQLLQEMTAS
The experiment in a line: IRAK-4 Biochemical Assay (TR-FRET). As to conditions: 5 ng IRAK-4 kinase, 100 nM Biotin Histone H3, 20 μM ATP, 30 minutes pre-incubation, read-out: IC50 values for IRAK4 activity. Here is the method:
Compounds were tested for their potential to inhibit IRAK-4 enzyme in a TR-FRET assay using recombinant IRAK-4 kinase from Millipore, USA. The assay buffer was 50 mM Tris-HCl pH 7.5, 20 mM MgCl2, 1 mM EGTA, 2 mM DTT, 3 mM MnCl2 and 0.01% Tween20. 5 ng of IRAK-4 kinase was used for the assay. After pre-incubation of enzyme with test compound for 30 minutes at room temperature, a substrate mix containing 100 nM Biotin Histone H3 (Millipore, USA) and 20 μM ATP (Sigma, USA) was added and the reaction was incubated for 30 minutes. Post incubation, the reaction was stopped by the addition of stop mix containing 40 mM EDTA, 1 nM of Europium-Anti-Phospho-Histone H3 (Ser10) antibody (Perkin Elmer, USA) and 20 nM Sure Light Allophycocyanin-Streptavidin (Perkin Elmer, USA).

By pIC50 is commonly meant −log10 of the IC50, conventionally taken in molar units.

For `COc1ccc(-c2nc(C(=O)Nc3cc4sc(N5CCOCC5)nc4nc3N3CC[C@@H](O)C3)co2)cn1` [Example 78, (R)—N-(5-(3-hydroxypyrrolidin-1-yl)-2-morpholinothiazolo[4,5-b]pyridin-6-yl)-2-(6-methoxypyridin-3-yl)oxazole-4-carboxamide], the pIC50 was above 7.30. As to `O=C(Nc1cc2sc(N3CCOCC3)nc2nc1N1CCC1)c1cccc(N2CC[C@H](O)C2)n1` [Example 79, (S)—N-(5-(azetidin-1-yl)-2-morpholinothiazolo[4,5-b]pyridin-6-yl)-6-(3-hydroxypyrrolidin-1-yl)picolinamide], the pIC50 was 7.00 to 7.30.

For the compound `Cc1cc(-c2nc(C(=O)Nc3cc4sc(N5CCOCC5)nc4nc3N3CC(O)C3)co2)ccn1` [Example 80, N-(5-(3-hydroxyazetidin-1-yl)-2-morpholinothiazolo[4,5-b]pyridin-6-yl)-2-(2-methylpyridin-4-yl)oxazole-4-carboxamide], the negative logarithm of the IC50 (pIC50) was above 7.30. On to `Cc1cc(-c2ccc(C(=O)Nc3cc4sc(N5CCOCC5)nc4nc3N3CC[C@H](O)C3)s2)ccn1` [Example 81, (S)—N-(5-(3-hydroxypyrrolidin-1-yl)-2-morpholinothiazolo[4,5-b]pyridin-6-yl)-5-(2-methylpyridin-4-yl)thiophene-2-carboxamide], for which the pIC50 is below 7.00. Turning to `Cc1cc(-c2ccc(C(=O)Nc3cc4sc(N5CCOCC5)nc4nc3N3CC[C@H](O)C3)o2)ccn1` [Example 82, (S)—N-(5-(3-hydroxypyrrolidin-1-yl)-2-morpholinothiazolo[4,5-b]pyridin-6-yl)-5-(2-methylpyridin-4-yl)furan-2-carboxamide], the negative logarithm of the IC50 (pIC50) was above 7.30. As for `Cc1cc(-c2nc(C(=O)Nc3cc4sc(N5CCOCC5)nc4nc3N3CCC[C@H](O)C3)co2)ccn1` [Example 83, (S)—N-(5-(3-hydroxypiperidin-1-yl)-2-morpholinothiazolo[4,5-b]pyridin-6-yl)-2-(2-methylpyridin-4-yl)oxazole-4-carboxamide], the pIC50 was above 7.30. As for `Cc1cc(-c2nc(C(=O)Nc3cc4sc(N5CCOCC5)nc4nc3N3CCC(O)CC3)co2)ccn1` [Example 84, N-(5-(4-hydroxypiperidin-1-yl)-2-morpholinothiazolo[4,5-b]pyridin-6-yl)-2-(2-methylpyridin-4-yl)oxazole-4-carboxamide], the pIC50 was above 7.30. `Cc1cc(-c2nc(C(=O)Nc3cc4sc(N5CCOCC5)nc4nc3N3CC[C@@H](O)C3)co2)ccn1` [Example 85, (R)—N-(5-(3-hydroxypyrrolidin-1-yl)-2-morpholinothiazolo[4,5-b]pyridin-6-yl)-2-(2-methylpyridin-4-yl)oxazole-4-carboxamide]: the pIC50 was above 7.30. As for `Cc1cc(-c2nc(C(=O)Nc3cc4sc(N5CCCCC5)nc4nc3N3CCC3)co2)ccn1` [Example 87, N-(5-(azetidin-1-yl)-2-(piperidin-1-yl)thiazolo[4,5-b]pyridin-6-yl)-2-(2-methylpyridin-4-yl)oxazole-4-carboxamide], the pIC50 was above 7.30. Under `Cc1cc(-c2nc(C(=O)Nc3cc4sc(N5CCCCC5)nc4nc3N3CCCC3)co2)ccn1` [Example 88, 2-(2-methylpyridin-4-yl)-N-(2-(piperidin-1-yl)-5-(pyrrolidin-1-yl)thiazolo[4,5-b]pyridin-6-yl)oxazole-4-carboxamide] stands above 7.30; under `Cc1cc(-c2nc(C(=O)Nc3cc4sc(N5CCOCC5)nc4nc3N3CCCC3)co2)ccn1` [Example 89, 2-(2-methylpyridin-4-yl)-N-(2-morpholino-5-(pyrrolidin-1-yl)thiazolo[4,5-b]pyridin-6-yl)oxazole-4-carboxamide], above 7.30; under `Cc1cc(-c2ccc(C(=O)Nc3cc4sc(N5CCOCC5)nc4nc3N3CCCCC3)o2)ccn1` [Example 90, 5-(2-methylpyridin-4-yl)-N-(2-morpholino-5-(piperidin-1-yl)thiazolo[4,5-b]pyridin-6-yl)furan-2-carboxamide], above 7.30.

Consider `Cc1cc(-c2nc(C(=O)Nc3cc4sc(N5CCOCC5)nc4nc3N3CCCCCC3)co2)ccn1` [Example 91, N-(5-(azepan-1-yl)-2-morpholinothiazolo[4,5-b]pyridin-6-yl)-2-(2-methylpyridin-4-yl)oxazole-4-carboxamide], for which the pIC50 was above 7.30. With `Nc1cc(-c2nc(C(=O)Nc3cc4sc(N5CCOCC5)nc4nc3N3CCCCC3)co2)ccn1` [Example 92, 2-(2-aminopyridin-4-yl)-N-(2-morpholino-5-(piperidin-1-yl)thiazolo[4,5-b]pyridin-6-yl)oxazole-4-carboxamide hydrochloride], the pIC50 was above 7.30. In the case of `Cc1cc(-c2nc(C(=O)Nc3cc4sc(N5CCOCC5)nc4nc3N3CCC3)co2)ccn1` [Example 93, N-(5-(azetidin-1-yl)-2-morpholinothiazolo[4,5-b]pyridin-6-yl)-2-(2-methylpyridin-4-yl)oxazole-4-carboxamide], the pIC50 is above 7.30.

Regarding `Cc1cc(-c2nc(C(=O)Nc3cc4sc(N5CCOCC5)nc4nc3N3CCC[C@@H](O)C3)co2)ccn1` [Example 94, (R)—N-(5-(3-hydroxypiperidin-1-yl)-2-morpholinothiazolo[4,5-b]pyridin-6-yl)-2-(2-methylpyridin-4-yl)oxazole-4-carboxamide], the pIC50 was above 7.30. Turning to `Cc1cc(-c2ccc(C(=O)Nc3cc4sc(N5CCOCC5)nc4nc3N3CCC[C@@H](O)C3)o2)ccn1` [Example 95, (R)—N-(5-(3-hydroxypiperidin-1-yl)-2-morpholinothiazolo[4,5-b]pyridin-6-yl)-5-(2-methylpyridin-4-yl)furan-2-carboxamide], the negative logarithm of the IC50 (pIC50) was above 7.30. Consider `C[C@H](O)Cn1cc(-c2cccc(C(=O)Nc3cc4sc(N5CCOCC5)nc4nc3N3CCCCC3)n2)cn1` [Example 96, (S)-6-(1-(2-hydroxypropyl)-1H-pyrazol-4-yl)-N-(2-morpholino-5-(piperidin-1-yl)thiazolo[4,5-b]pyridin-6-yl)picolinamide], for which the pIC50 is above 7.30. Under `Cc1cc(-c2ccc(C(=O)Nc3cc4sc(N5CCOCC5)nc4nc3N3CCC(F)CC3)o2)ccn1` [Example 97, N-(5-(4-fluoropiperidin-1-yl)-2-morpholinothiazolo[4,5-b]pyridin-6-yl)-5-(2-methylpyridin-4-yl)furan-2-carboxamide] stands above 7.30; under `Cc1cc(-c2nc(C(=O)Nc3cc4sc(N5CCOCC5)nc4nc3N3CCC(F)CC3)co2)ccn1` [Example 98, N-(5-(4-fluoropiperidin-1-yl)-2-morpholinothiazolo[4,5-b]pyridin-6-yl)-2-(2-methylpyridin-4-yl)oxazole-4-carboxamide], above 7.30; under `Cc1cc(-c2nc(C(=O)Nc3cc4sc(N5CCOCC5)nc4nc3-c3cnn(C)c3)co2)ccn1` [Example 99, N-(5-(1-methyl-1H-pyrazol-4-yl)-2-morpholinothiazolo[4,5-b]pyridin-6-yl)-2-(2-methylpyridin-4-yl)oxazole-4-carboxamide], above 7.30. Under `Cc1cc(-c2nc(C(=O)Nc3cc4sc(N5CCOCC5)nc4nc3-c3cccc(F)c3)co2)ccn1` [Example 100, N-(5-(3-fluorophenyl)-2-morpholinothiazolo[4,5-b]pyridin-6-yl)-2-(2-methylpyridin-4-yl)oxazole-4-carboxamide] stands above 7.30; under `Cc1cc(-c2ccc(C(=O)Nc3cc4sc(N5CCOCC5)nc4nc3N3CCC(O)CC3)o2)ccn1` [Example 101, N-(5-(4-hydroxypiperidin-1-yl)-2-morpholinothiazolo[4,5-b]pyridin-6-yl)-5-(2-methylpyridin-4-yl)furan-2-carboxamide], above 7.30; under `Cc1cc(-c2ccc(C(=O)Nc3cc4sc(N5CCOCC5)nc4nc3N3CCCC(F)C3)o2)ccn1` (stereo not drawn) [Example 102, N-(5-(3-fluoropiperidin-1-yl)-2-morpholinothiazolo[4,5-b]pyridin-6-yl)-5-(2-methylpyridin-4-yl)furan-2-carboxamide], above 7.30. Under `COc1ccc(-c2nc(C(=O)Nc3cc4oc(N5CCOCC5)nc4nc3N3CC[C@H](O)C3)co2)cn1` [Example 103, (S)—N-(5-(3-hydroxypyrrolidin-1-yl)-2-morpholinooxazolo[4,5-b]pyridin-6-yl)-2-(6-methoxypyridin-3-yl)oxazole-4-carboxamide] stands below 7.00; under `COc1ccc(-c2nc(C(=O)Nc3cc4oc(N5CCOCC5)nc4nc3N3CC[C@@H](O)C3)co2)cn1` [Example 105, (R)—N-(5-(3-hydroxypyrrolidin-1-yl)-2-morpholinooxazolo[4,5-b]pyridin-6-yl)-2-(6-methoxypyridin-3-yl)oxazole-4-carboxamide], below 7.00. As to `COc1ccc(-c2nc(C(=O)Nc3cc4oc(N5CCOCC5)nc4nc3N3CCC(O)C3)co2)cn1` (stereo not drawn) [Example 106, N-(5-(3-hydroxypyrrolidin-1-yl)-2-morpholinooxazolo[4,5-b]pyridin-6-yl)-2-(6-methoxypyridin-3-yl)oxazole-4-carboxamide], the pIC50 is below 7.00.
